Measurements published in ChEMBL document CHEMBL1201862, “PubChem BioAssay data set” (2004).
Calls of active or inactive are those of the source. Numbered stars: 1 amine (or outer) side, 2 acyl side, 3 side chain; on linkers, the order of the positions; unused ones are H or OH. Square brackets hold non-standard residues; d marks the D form. Peptide text beside a SMILES is read from it. ξ: configuration not given here. ξR = N=C(N)NCCCC(N)C(=O)O; ξF = NC(Cc1ccccc1)C(=O)O; CO = O=C([*:1])[*:2]

Legend:
Cytochrome P450 2C9 = Cytochrome P450 2C9 (Homo sapiens, UniProt P11712)
Chain of Cytochrome P450 2C9 (P11712 whole entry): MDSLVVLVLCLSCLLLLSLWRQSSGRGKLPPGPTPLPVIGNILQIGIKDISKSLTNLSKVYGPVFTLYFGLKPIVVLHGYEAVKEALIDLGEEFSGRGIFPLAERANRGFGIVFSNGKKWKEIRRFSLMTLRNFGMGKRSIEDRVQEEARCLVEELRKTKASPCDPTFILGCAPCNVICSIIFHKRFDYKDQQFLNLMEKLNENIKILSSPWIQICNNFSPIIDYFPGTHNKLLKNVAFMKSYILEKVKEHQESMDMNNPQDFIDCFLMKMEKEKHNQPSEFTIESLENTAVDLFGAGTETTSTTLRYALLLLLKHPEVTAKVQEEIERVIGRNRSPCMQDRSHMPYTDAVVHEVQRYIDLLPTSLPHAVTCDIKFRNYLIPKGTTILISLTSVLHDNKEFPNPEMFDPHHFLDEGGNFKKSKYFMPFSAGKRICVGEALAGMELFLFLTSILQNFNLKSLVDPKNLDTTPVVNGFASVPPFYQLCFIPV

Cytochrome P450 1A2 = target: T1, Cytochrome P450 1A2 (Homo sapiens, UniProt P05177);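 also: PubChem cytochrome P450 panel assay, CYP1A2 panel member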
T1 sequence (P05177 whole entry): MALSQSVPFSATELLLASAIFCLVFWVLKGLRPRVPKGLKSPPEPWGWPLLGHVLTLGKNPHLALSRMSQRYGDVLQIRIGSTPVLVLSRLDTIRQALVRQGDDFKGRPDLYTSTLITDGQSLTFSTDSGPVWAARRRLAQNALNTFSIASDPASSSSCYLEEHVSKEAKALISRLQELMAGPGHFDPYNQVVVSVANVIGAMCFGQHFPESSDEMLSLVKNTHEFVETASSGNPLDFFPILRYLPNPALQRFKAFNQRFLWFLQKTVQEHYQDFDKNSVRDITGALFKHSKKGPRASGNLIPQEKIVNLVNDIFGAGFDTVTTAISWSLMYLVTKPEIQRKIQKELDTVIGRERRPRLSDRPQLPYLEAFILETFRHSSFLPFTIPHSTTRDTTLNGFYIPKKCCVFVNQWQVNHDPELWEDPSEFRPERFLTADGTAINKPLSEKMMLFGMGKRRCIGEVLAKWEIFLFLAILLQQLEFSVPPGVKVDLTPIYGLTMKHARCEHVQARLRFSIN

[1] = Luminescence Cell-Based Dose Response HTS to Identify Inhibitors of 5'UTR Stem-Loop Driven Prion Protein mRNA Translation in H4 Neuroglioblastoma Cells. [Related pubchem assays: 1827 (Project Summary), 1813 (Primary HTS)]; assay type: functional
[2] = alpha-synuclein stem-loop luciferase translation blockers – H4 neuroglioma cells, luminescence, confirmation (AID 1988); assay type: functional, cell-based
[3] = luciferase reporter signal suppression in cells – H4 neuroglioma cells, luminescence, dose response (AID 1990); assay type: functional, cell-based
[4] = target: T2, Short transient receptor potential channel 4 (Mus musculus, UniProt Q9QUQ5); assay: calcium entry via TRPC4 opening agents – cell-based, HEK293 TRPC4/mu-opioid, Fluo-4 calcium, dose response (AID 434937); assay type: functional
T2 sequence (Q9QUQ5 whole entry): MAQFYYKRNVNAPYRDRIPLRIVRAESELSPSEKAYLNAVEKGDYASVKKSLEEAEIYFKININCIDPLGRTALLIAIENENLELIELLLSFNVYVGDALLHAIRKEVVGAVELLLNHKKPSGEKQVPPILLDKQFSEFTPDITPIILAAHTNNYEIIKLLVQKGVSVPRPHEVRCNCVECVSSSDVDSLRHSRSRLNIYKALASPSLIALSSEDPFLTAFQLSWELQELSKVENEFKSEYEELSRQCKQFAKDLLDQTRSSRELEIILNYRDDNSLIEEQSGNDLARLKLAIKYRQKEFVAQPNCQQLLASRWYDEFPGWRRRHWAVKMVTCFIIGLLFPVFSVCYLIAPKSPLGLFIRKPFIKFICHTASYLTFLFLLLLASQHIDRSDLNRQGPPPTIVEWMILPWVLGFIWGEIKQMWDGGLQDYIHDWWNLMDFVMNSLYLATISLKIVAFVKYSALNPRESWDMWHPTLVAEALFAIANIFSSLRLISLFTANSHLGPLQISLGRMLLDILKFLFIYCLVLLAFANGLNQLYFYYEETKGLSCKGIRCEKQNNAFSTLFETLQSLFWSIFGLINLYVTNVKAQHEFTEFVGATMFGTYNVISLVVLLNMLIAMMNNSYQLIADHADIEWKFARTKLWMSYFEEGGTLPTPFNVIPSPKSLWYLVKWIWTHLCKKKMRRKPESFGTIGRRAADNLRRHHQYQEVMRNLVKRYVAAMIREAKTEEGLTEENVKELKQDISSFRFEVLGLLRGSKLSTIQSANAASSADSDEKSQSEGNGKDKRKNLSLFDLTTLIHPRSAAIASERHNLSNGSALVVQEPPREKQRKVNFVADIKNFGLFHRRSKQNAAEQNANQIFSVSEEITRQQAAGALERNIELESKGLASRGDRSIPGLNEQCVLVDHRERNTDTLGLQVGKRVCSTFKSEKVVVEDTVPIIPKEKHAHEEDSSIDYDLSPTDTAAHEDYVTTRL

[5] = target: T2, Short transient receptor potential channel 4; assay: block of DAMGO-driven TRPC4 calcium entry – cell-based, HEK293 TRPC4/mu-opioid, Fluo-4 calcium, dose response (AID 434942); assay type: functional;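 also: potency of inhibitors blocking the TRPC4 calcium response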
Cytochrome P450 2C19 = Cytochrome P450 2C19 (Homo sapiens, UniProt P33261); assay: Cytochrome panel assay with activity outcomes. Panel member name: p450-cyp2c19 Compounds with AC50 equal or less than 10 uM are considered active; assay type: functional; conditions: read-out: AC50
Chain of Cytochrome P450 2C19 (P33261 whole entry): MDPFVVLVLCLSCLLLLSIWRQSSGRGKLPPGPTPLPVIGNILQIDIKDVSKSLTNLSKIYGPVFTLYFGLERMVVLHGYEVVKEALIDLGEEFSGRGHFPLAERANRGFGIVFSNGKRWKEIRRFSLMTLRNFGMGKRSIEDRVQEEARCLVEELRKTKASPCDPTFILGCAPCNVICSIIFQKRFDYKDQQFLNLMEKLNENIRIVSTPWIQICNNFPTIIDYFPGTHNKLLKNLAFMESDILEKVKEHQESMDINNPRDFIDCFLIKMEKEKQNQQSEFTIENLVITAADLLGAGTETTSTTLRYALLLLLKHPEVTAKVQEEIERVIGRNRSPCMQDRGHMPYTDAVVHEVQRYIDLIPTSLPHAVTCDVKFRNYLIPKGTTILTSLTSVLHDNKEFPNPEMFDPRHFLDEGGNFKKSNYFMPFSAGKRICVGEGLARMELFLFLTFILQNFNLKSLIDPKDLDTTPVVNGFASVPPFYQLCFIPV

Coagulation factor XII = target: T3, Coagulation factor XII (Homo sapiens, UniProt P00748); assay type: functional;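 also: activated factor XIIa alpha cleaving a fluorogenic AMC peptide substrate; inhibitor potency from loss of enzyme activity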
T3 sequence (P00748 whole entry): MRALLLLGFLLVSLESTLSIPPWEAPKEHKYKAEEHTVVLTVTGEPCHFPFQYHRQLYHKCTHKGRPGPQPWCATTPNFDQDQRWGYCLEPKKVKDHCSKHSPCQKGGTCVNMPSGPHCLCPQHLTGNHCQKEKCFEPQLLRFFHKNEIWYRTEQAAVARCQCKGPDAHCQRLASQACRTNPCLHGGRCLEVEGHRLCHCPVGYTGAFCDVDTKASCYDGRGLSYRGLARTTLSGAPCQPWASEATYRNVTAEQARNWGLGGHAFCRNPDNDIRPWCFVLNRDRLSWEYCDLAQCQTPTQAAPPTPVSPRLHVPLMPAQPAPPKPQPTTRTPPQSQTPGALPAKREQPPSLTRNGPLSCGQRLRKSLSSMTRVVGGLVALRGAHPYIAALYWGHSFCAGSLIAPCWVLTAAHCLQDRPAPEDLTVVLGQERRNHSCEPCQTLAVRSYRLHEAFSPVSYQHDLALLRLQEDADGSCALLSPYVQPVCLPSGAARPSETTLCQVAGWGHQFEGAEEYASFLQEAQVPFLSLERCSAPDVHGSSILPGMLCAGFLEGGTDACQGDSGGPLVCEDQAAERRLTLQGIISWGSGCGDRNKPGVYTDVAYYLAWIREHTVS

Escherichia coli = assay: microbe, parasite or virus in culture
[6] = target: T4, Latent membrane protein 1 (Human herpesvirus 4 (strain B95-8), UniProt P03230); assay: LMP1 TES1 pathway selectivity over dsRED control – imaging, HEK293T, dual-color eGFP/dsRED, cherry-picks, selectivity assay for LMP1 NF-kB inhibitor project, dose response (AID 588398); assay type: functional, cell-based
T4 sequence (P03230 whole entry): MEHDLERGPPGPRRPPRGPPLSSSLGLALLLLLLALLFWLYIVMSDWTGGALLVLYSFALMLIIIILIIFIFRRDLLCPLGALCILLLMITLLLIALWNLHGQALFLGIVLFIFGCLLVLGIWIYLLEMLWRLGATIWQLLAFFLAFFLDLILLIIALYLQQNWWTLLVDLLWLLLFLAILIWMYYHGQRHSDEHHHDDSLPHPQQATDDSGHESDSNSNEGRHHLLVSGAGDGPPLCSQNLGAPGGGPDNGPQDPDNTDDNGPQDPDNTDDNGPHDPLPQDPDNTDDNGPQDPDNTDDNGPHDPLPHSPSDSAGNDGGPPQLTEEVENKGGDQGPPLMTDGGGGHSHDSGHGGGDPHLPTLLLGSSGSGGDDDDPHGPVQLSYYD

HEK293 = assay: EBV LMP1 TES2 canonical NF-kB signalling blockers – cell-based, HEK293, luciferase, cherry-pick, dose response (AID 588343); assay type: functional; conditions: Homo sapiens
[7] = target: T5, Type-1 angiotensin II receptor (Homo sapiens, UniProt P30556); assay: antagonism of angiotensin II type 1 receptor – cell-based, uHTS hits, selectivity assay for APJ receptor antagonist project, dose response (AID 463214); assay type: functional;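 also: antagonist potency against angiotensin II stimulated AT1 response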
T5 sequence (P30556 whole entry): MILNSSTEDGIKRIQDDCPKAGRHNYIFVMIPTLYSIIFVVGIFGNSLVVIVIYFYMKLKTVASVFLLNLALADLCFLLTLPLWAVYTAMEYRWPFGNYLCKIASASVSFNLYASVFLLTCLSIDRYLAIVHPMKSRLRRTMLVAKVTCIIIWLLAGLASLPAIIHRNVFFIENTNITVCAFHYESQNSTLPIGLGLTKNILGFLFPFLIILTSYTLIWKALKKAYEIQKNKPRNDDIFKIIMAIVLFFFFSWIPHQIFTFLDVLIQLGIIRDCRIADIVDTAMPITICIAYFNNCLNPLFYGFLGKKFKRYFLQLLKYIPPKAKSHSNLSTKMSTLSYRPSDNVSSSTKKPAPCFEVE

Beta-galactosidase = Beta-galactosidase (Escherichia coli, UniProt Q8VNN2); assay: PubChem AID 485352; assay type: functional
Chain of Beta-galactosidase (Q8VNN2 whole entry): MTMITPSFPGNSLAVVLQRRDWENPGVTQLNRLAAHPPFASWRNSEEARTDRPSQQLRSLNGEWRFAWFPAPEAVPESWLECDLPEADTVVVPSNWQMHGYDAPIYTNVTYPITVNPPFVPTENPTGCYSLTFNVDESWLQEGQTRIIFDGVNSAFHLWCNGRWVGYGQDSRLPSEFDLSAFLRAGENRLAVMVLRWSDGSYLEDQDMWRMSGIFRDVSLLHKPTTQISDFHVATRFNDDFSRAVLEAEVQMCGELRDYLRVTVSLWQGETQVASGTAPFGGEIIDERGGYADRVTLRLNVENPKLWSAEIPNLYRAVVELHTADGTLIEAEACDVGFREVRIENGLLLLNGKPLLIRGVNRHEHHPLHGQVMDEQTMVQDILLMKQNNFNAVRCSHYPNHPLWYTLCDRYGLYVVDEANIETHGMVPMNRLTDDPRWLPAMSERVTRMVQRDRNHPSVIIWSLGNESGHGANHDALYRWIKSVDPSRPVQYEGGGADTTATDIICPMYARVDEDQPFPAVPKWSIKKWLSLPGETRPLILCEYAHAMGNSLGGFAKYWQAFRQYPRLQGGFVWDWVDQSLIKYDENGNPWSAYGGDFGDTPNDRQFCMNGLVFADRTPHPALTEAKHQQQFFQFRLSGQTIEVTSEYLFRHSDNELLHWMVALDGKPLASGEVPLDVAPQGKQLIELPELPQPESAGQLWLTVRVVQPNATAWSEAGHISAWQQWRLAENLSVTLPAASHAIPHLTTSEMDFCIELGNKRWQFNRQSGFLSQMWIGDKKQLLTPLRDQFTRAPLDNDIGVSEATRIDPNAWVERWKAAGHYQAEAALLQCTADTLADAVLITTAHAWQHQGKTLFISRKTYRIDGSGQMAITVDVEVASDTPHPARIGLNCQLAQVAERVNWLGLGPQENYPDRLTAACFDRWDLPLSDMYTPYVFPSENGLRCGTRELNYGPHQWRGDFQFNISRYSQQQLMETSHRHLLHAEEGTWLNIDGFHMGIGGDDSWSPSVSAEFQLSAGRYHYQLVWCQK

Vero = assay: cells; assay type: functional, cell-based; conditions: Chlorocebus sabaeus

Compound: Cc1ccc2c(c1)nnn2C1CCN(CC(=O)N2c3ccccc3CC2C)CC1 (stereo not given)
- AC50 (Cytochrome P450 2C9): inconclusive
- AC50 (Cytochrome P450 1A2): 6.31 µM (inconclusive)
- EC50 [1]: > 120 µM (not active)
- EC50 [2]: 81.6 µM (active)
- EC50 [3]: > 120 µM (not active)

Compound: O=C(N/N=C/c1cccnc1)c1ccccc1OCc1ccc(Cl)cc1
- EC50 [4]: 3.35 µM (active)
- EC50 [5]: 1.5 µM (active)

Compound: Cc1ccc(C(=O)NC2CCCCC2)cc1
- AC50 (Cytochrome P450 2C9): inconclusive
- AC50 (Cytochrome P450 1A2): 22.4 µM (inconclusive)
- AC50 (Cytochrome P450 2C19): 25.1 µM (inconclusive)

Compound: Cn1c(C(N)=O)cnc1Sc1ncc(C(F)(F)F)cc1Cl
- AC50 (Cytochrome P450 2C9): inconclusive
- AC50 (Cytochrome P450 1A2): 28.2 µM (inconclusive)

Compound: CC(C)[C@H](NC(=O)[C@H](CCCN=C(N)N)NC(=O)NC(Cc1ccccc1)C(=O)O)C(=O)NC(C=O)CCCN=C(N)N (stereo partly drawn) ({ξF-CO}-Arg-Val-[ξR]-aldehyde)
- IC50 (Coagulation factor XII): 5.87 µM (active)

Compound: COc1ccccc1NC(=O)CSc1nnnn1C
- IC50 (Coagulation factor XII): > 50 µM (inactive)

Compound: CC(=O)NC(Cc1c[nH]cn1)C(=O)O (stereo not given)
- AC50 (Escherichia coli): 29.2 µM (active)

Compound: COc1cc2c(=O)n(CC3CCCO3)c(=O)n(CC(=O)Nc3cccc(Cl)c3)c2cc1OC (stereo not given)
- AC50 [6]: 277 µM (active)
- AC50 (HEK293): 84.3 µM (active)

Compound: Cn1c(N)c(C(=O)COC(=O)CCCN2C(=O)c3ccccc3C2=O)c(=O)n(C)c1=O
- AC50 (Escherichia coli): 31.9 µM (active)

Compound: Cc1noc(C)c1C(=O)NNc1ccc(C(C)C)cc1
- IC50 [7]: 3.68 µM (active)
- EC50 (Beta-galactosidase): > 40 µM (inactive)

Compound: Cc1ccc(NC(S)=NCCC2=CCCCC2)cc1
- AC50 (Escherichia coli): 115 µM (active)

Compound: CC(C)(C)OC(=O)[C@H](Cc1ccccc1)NC(=O)c1[nH]cnc1C(=O)N1CCN(C(=O)OC(C)(C)C)CC1
- EC50 [1]: 20 µM (active)
- EC50 [2]: 26.6 µM (active)
- IC50 (Vero): 18.3 µM (active)
- EC50 [3]: 61.6 µM (active)
